“Also recorded” adds a separate entry of the source.
What was measured:
[1] = system: primary ovarian cancer cells; assay: Intraperitoneal metastatic ovarian cancer model, bioluminescence; type: in vivo, CB-17 SCID mice; conditions: 40 mg/kg QD from day 17; after 30 days
Method: For metastatic ovarian cancer cell injections, 5×10^6 viable primary ovarian cancer cells were injected into CB-17 SCID mice intraperitoneally in a volume of 0.1 ml. Tumor growth was monitored by live animal bioluminescence imaging (Xenogen) once per week. For in vivo determination of the metastatic burden, mice were anaesthetized and injected intraperitoneally with 75 mg/kg of D-luciferin (100 uL of 30 mg/mL in PBS). Metastatic growth was monitored over time using bioluminescence imaging performed with mice in a supine position 5 min after D-luciferin injection with a Xenogen IVIS system coupled to Living Image acquisition and analysis software (Xenogen). For BLI plots, photon flux was calculated for each mouse by using the same circular region of interest encompassing the abdomen of the mouse.
To determine whether DWLPK (SEQ ID NO: 4) could inhibit or regress existing ovarian metastases 5×10^6 primary ovarian cancer cells were injected intraperitoneally into SCID mice. After 17 days treatment was initiated with DWLPK (SEQ ID NO: 4) at a dose of 40 mg/kg QD, cisplatin at a dose of 2 mg/kg QOD, a combination of DWLPK (SEQ ID NO: 4) and cisplatin at the same doses, or PBS (control). It was observed that DWLPK (SEQ ID NO: 4) treatment completely regressed the metastases in 11/12 after 30 days and the regressed the metastases in the remaining mice by 99% (FIG. 20).

[2] = system: PC3M-LN4 prostate cancer cells; assay: Orthotopic PC3M-LN4 prostate tumor model; type: in vivo, SCID mice; conditions: 30 mg/kg/day i.p. from day 26 for 16 days; PBS control
Method: C57Bl6 SCID mice were injected with 1×10^6 PC3M-LN4 prostate cancer cells in the prostate gland as described previously (Kang et al). After 26 days the animals were treated with either PBS or peptides corresponding to residues 36-40 or 36-39 of saposin A at a dose of 30 mg/kg/day via intraperitoneal (i.p.) injection. After 16 days of treatment all animals were sacrificed, prostate tumors were weighed and harvested, along with the lungs of animals. Tissues were either fixed in NBF, or lysed and analyzed for Tsp-1 and p53 expression by western blot analysis.
The peptides were then tested for their ability to inhibit tumor growth and metastasis in three models, the PC3M-LN4 prostate cancer model, the B16-B6 melanoma model and the Lewis Lung Carcinoma (LLC) model. 1×10^6 PC3M-LN4 cells were first injected into the prostate gland of SCID mice. After 26 days these mice were treated with either PBS alone or the 4- or 5-amino acid peptide at a dose of 30 mg/kg/day via i.p. injection. The mice were treated for 16 days after which the mice were examined the size of the tumors and the expression of Tsp-1 and p53 in the primary tumors and lungs of the animals. The tumors in animals treated with the 4- and 5-amino acid peptides were, on average, 45% and 40% the size of control animals, respectively (FIG. 6).

[3] = system: Tsp-1 in white blood cells; assay: Tsp-1 protein in white blood cells of peptide-injected mice, Western blot; type: in vivo; conditions: 5 day I.P. injections, 30 mg/kg
Method: Mice were injected with DWLPK (SEQ ID NO: 4) or a scramble peptide using 5 day I.P. injections with 30 mg/kg peptide. White blood cells were isolated, protein was extracted, and a Western blot was performed measuring Tsp-1 protein.

[4] = system: MDA-MB-231-LM2 breast cancer cells; assay: Orthotopic MDA-MB-231-LM2 breast cancer model, lung metastasis after primary tumor resection; type: in vivo, SCID mice
Method: For orthotopic breast cancer cell injections, 5×10^6 viable MDA-MB-231 or its metastatic variant MDA-MB-LM2 cells, were injected into CB-17 SCID mice fat pads in a volume of 0.1 ml. Tumor growth and pulmonary metastases (following resection of primary tumor) were monitored by live animal bioluminescence imaging (Xenogen) once per week. For orthotopic prostate cancer cell injections, 2×10^6 viable LN4 or LN4-psap cells were injected into the prostate gland of mice. For in vivo determination of the metastatic burden, mice were anaesthetized and injected intraperitoneally with 75 mg/kg of D-luciferin (100 uL of 30 mg/mL in PBS). Metastatic growth was monitored over time using bioluminescence imaging performed with mice in a supine position 5 min after D-luciferin injection with a Xenogen IVIS system coupled to Living Image acquisition and analysis software (Xenogen). For BLI plots, photon flux was calculated for each mouse by using the same circular region of interest encompassing the thorax of the mouse.
The ability of the DWLPK (SEQ ID NO: 4) peptide to inhibit metastasis was tested in an orthotopic, clinically relevant, model of breast cancer metastatic to the lung. […] Lung metastases were assessed 3 weeks after the primary tumor removal (week 6 after primary tumor injection).

[5] = system: Lewis Lung Carcinoma cells; assay: Lewis Lung Carcinoma tail vein lung metastasis model, bioluminescence; type: in vivo, C57Bl6 mice
Method: C57Bl6 mice were injected with 1×10^6 Lewis Lung Carcinoma cells via tail vein. After 10 days the animals were treated with either PBS or a peptide corresponding to residues 36-40 of saposin A at a dose of 30 mg/kg/day via i.p. injection. After 16 days of treatment all animals were sacrificed, lungs were weighed and harvested. Tissues were either fixed in NBF, or lysed and analyzed for Tsp-1 and p53 expression by western blot analysis.
1×10^6 luciferase-expressing LLC cells were then injected via tail vein into C57Bl6 mice. After 5 days the mice were treated with the 5-amino acid peptide at a dose of 30 mg/kg/day via i.p. injection. After 29 days the animals were sacrificed, at which point the average luciferase activity in the peptide treated mice, as measured by a Xeongoen IVIS system, was 2% that of the luciferase activity in mice treated with a scrambled peptide (FIG. 8).
For experimental metastasis, 7-week old C57BL/6 mice were injected via tail vein with 1×10^5 luciferase-labeled LLC cells. Metastatic growth was monitored over time using bioluminescence imaging performed with mice in a supine position 5 min after D-luciferin injection with a Xenogen IVIS system coupled to Living Image acquisition and analysis software (Xenogen). For BLI plots, photon flux was calculated for each mouse by using the same circular region of interest encompassing the thorax of the mouse.

With “DWLPK [5-amino acid peptide corresponding to residues 36-40 of saposin A]” as the substance, how does the “mice with completely regressed metastases” value [1] read?
Its value is 11/12.

And the “regression of the metastases in the remaining mice” value [1]?
The value was 99%.

What about the “prostate tumor size relative to control animals” value [2] of the same substance?
The value was 40%.

What about the “Tsp-1 protein in white blood cells” value [3] of the same substance?
The value was “upregulated; also recorded: increased Tsp-1 expression”.

What about the “Tsp-1 in the Gr1+ myeloid compartment of lungs” value ([4]; compared to scrambled peptide) of the same substance?
Its value is “persistent Tsp-1 upregulation”.

And the “reduction of the metastatic burden in the lungs” value ([4]; daily treatment after resection, 3 weeks after primary tumor removal, versus scramble peptide)?
The value was 50%.

What about the “average luciferase activity relative to mice treated with a scrambled peptide” value ([5]; 30 mg/kg/day i.p. from day 5, after 29 days, IVIS) of the same substance?
Its value is 2%.

And the “lung metastases by bioluminescence imaging” value ([5]; LLC-luc cells via tail vein, compared to scrambled peptide)?
The value was “dramatically reduced lung metastases”.

Reference: patent US12285459B2, “Saposin-A derived peptides and uses thereof” (CHILDREN'S MEDICAL CENTER CORPORATION, priority 2011, dated 2025)
